Values of other authors, collected in US6068976A, “Modulators of ob gene and screening methods therefor” (priority 1996, dated 2000).

Conditions: in vivo; cited from earlier work

**Q.** Which “weight gain and fat accumulation” value does the source give for `CC(COc1ccccc1)N(CCCl)Cc1ccccc1` (stereo not shown) [phenoxybenzamide] here?
**A.** prevents weight gain and fat accumulation
